From US6861445B2, “3-Substituted-3-(substitutedsulfonyl or sulfanyl)pyrrolidine-2,5-diones useful for inhibition of farnesyl-protein transferase” (Wyeth Holdings Corporation, priority 2001, dated 2005)

What was measured:
FPTase (H-Ras substrate) = FPTase (H-Ras substrate) (Homo sapiens, UniProt P49354+P49356); experiment: in vitro FTase Inhibition Assay, H-Ras as substrate for farnesylation; format: biochemical; settings: H-Ras used as substrate for farnesylation
Procedure: (§1) The ability of the compounds of this invention to inhibit FPTase was evaluated in the standard pharmacological in vitro test procedures described below.
(§2) Enzyme test procedure: FPTase inhibition in vitro assay was performed according to James, G. L., Brown, M. S., and Goldstein, J. L., Methods in Enzymology, 1995, 255, 38-46; and Garcia, M. A., et al., J. Biol. Chem., 1993, 268, 18415-18420.
(§3) • Materials—Purified FPTase (Moomaw, J. F. and Casey, P. J., J. Biol. Chem., 1992, 267, 17438-17443), purified His6-Ras, inhibitor compounds at 10 mg/ml or 10 mM in 100% DMSO, ^3H-FPP (50,000 dpm/pmol) Amersham, TCA/SDS (6%/2%), TCA (6%), Glass fiber filters (0.22-0.45 m), vacuum manifold or 96 well filtration plates. • Methods—1. Dilute FPTase inhibitors from stock solutions to 2.5× in 2.5% DMSO, 10 mM DTT, 0.5% octyl-B-glucoside. 2. Solution #1 is added to FPTase reaction in a volume of […]. 3. Standard reaction mix, […], contains 50 mM Tris (7.5),[…], 3 mM MgCl2, 20 mM KCl, 5 mM DTT, 0.2% octyl-B-glucoside, 1% DMSO, […] His6-Ras, 10 ng FPTase, and various concentrations of FPTase inhibitors. 4. Incubate for 30-90 min at 25° C. 5. […] Add scintillant to filters, measure ^3H-FPP incorporation into Ras protein. • Analysis of Results—Percent inhibition by test compounds is determined by the following: […]. […]

FPTase (K-Ras substrate) = FPTase (K-Ras substrate) (Homo sapiens, UniProt P49354+P49356); experiment: in vitro FTase Inhibition Assay, K-Ras as substrate for farnesylation; format: biochemical; settings: K-Ras used as substrate for farnesylation
Procedure: as §1, §2, §3

IC50 (FPTase (H-Ras substrate)) [µM]	melting point [°C]	IC50 (FPTase (K-Ras substrate)) [µM]	Structure (SMILES)
0.14	160 to 162	> 1	COc1ccc(S(=O)(=O)C2(CCCC#Cc3ccc(Cl)cc3)CC(=O)NC2=O)cc1 (stereo not shown) [3-[5-(4-Chlorophenyl)pent-4-ynyl]-3-(4-methoxybenzenesulfonyl)-pyrrolidine-2,5-dione]
6.5	–	–	Cc1ccc(S(=O)(=O)C2(CC#Cc3ccc(Cl)cc3)CC(=O)NC2=O)cc1 (stereo not shown) [3-[-3-(4-Chlorophenyl)prop-2-ynyl]-3-(toluene-4-sulfonyl)pyrrolidine-2,5-dione]
